Consider three molecules from patent US10710988B2, “Piperazine derivative” (Astellas Pharma Inc., priority 2016, dated 2020).

Structures are written as SMILES. pEC50: −log10 of the molar value. Like-named read-outs stand apart in the source and are kept apart here.

Test [1] deals with T1, human MC3 receptor (Homo sapiens, UniProt P41968).
T1 construct: expressed in transfected cells; host or cells: FreeStyle 293-F cells (transient, electroporation)
Nature of the test: Human MC3 receptor activation, cAMP production in cells transiently expressing the receptor. In kind it is cell-based. The settings on record: FreeStyle 293-F cells expressing human MC3 receptor, α-MSH maximum = 100%. From the text: (§1) (1) Construction of Human MC Receptor-Expressing Vector
(§2) A human MC4 receptor gene (GenBank Accession No.: NM_005912.2), a human MC1 receptor gene (GenBank Accession No.: NM_002386.3), or a human MC3 receptor gene (GenBank Accession No.: NM_019888.3) was introduced into an expression vector pcDNA™ 3.1N/V5-His TOPO (registered trademark) (Thermo Fisher Scientific Inc).
(§3) (2) Construction of Cells Transiently Expressing Human MC Receptor
(§4) An expression vector for a human MC4, MC1, or MC3 receptor was introduced into FreeStyle™ 293-F cells (Thermo Fisher Scientific Inc., product number: R790-07). For the introduction, electroporation was employed. That is, 1×10^7 FreeStyle™ 293-F cells were suspended in 80 μL of an Electroporation Buffer (Thermo Fisher Scientific Inc., product number: B201-100), and 20 μg of the expression vector was added thereto. The resultant was put into a cuvette (OC-100 Processing Assembly, MaxCyte, Inc.) and electroporated with MaxCyte STX (registered trademark) (MaxCyte, Inc.). The cells were cultured for a day, suspended in a Cell Banker (registered trademark) 1 (TAKARA BIO INC. or JUJI FIELD Inc., product number: BLC-1), and stored frozen until they were used.
(§5) (3) Measurement of Amount of cAMP Production
(§6) Measurement was carried out by using a LANCE (registered trademark) Ultra cAMP Kit (PerkinElmer, Inc.) in accordance with the attached instructions. That is, after dissolution in DMSO, the test compound (a final concentration of 1 pM to 30 μM) diluted with an assay buffer (Hank's balanced salt solution, 5 mM 4-(2-hydroxyethyl)-1-piperazineethanesulfonic acid (HEPES), 0.5 mM 3-isobutyl-1-methylxanthine (IBMX), 0.1% bovine serum albumin, pH 7.4), or α-MSH (Bachem Inc., a final concentration of 1 pM to 30 μM) was added to OptiPlate-384 (PerkinElmer, Inc.). Furthermore, the suspension of the cells transiently expressing the human MC4, MC1, or MC3 receptor prepared using the assay buffer was added thereto at 1,000 cells/well, and then left to stand at room temperature for about 1 hour. Thereafter, an Eu-cAMP tracer solution and an ULight™-anti-cAMP solution were added thereto, and then the resulting solution was left to stand at room temperature for about 1 hour. The amount of cAMP was calculated using EnVision (registered trademark) (PerkinElmer Inc.).
(§7) For the agonistic activity, the efficacy (EC50 (μM)) was calculated by a non-linear regression method with a Sigmoid-Emax model, by defining the maximum reaction using α-MSH as 100% and the reaction using the vehicle alone as 0%, respectively.
(Changes in cAMP serve as a functional read-out for many G protein-coupled receptors.)

Test [2] concerns phenylephrine-induced urethral pressure increase. Nature of the test: Effect on rat urethral pressure (phenylephrine-induced urethral pressure increase). The format is in vivo. The following applies: read-out: ID40. How it is done:
The present Test Example was performed by partially modifying the technique reported as a testing system for evaluating a urethral resistance-reducing action (European Journal of Pharmacology, 679, 127-131 (2012)). Male Wistar rats (Charles River Laboratories Japan, Inc.) were anesthetized with urethane (1.2 g/kg ip), and immobilized in a supine position. The midline incision was performed in the lower abdominal portion such that the bladder was exposed. The bladder apex was incised, and from the incision site, a microchip pressure transducer catheter (3.5 Fr, Millar, Inc) was inserted and implanted into the inside of the urethra. In addition, a cannula for drug administration was implanted into the femoral vein. After the urethral pressure was stabilized, phenylephrine hydrochloride (Sigma-Aldrich Co. LLC., 30 μg/kg) was intravenously administered to induce an increase in the urethral pressure. At an interval of about 30 minutes, the above operation was repeated twice or more so as to confirm the stability of the phenylephrine hydrochloride-induced urethral pressure increasing reaction. Then, a test compound (dissolved in 20% dimethyl acetamide, 10% Cremophor (registered trademark), and 70% physiological saline) was intravenously administered, and after 5 minutes, phenylephrine hydrochloride was administered. The procedure of the administration of the test compound and the administration of phenylephrine hydrochloride was repeated at an interval of about 30 minutes, and 3 to 5 doses of the test compound was evaluated (the test compound was administered at increasing doses). The obtained data was introduced into a personal computer through PowerLab (registered trademark) (ADInstruments, Inc.) and analyzed using LabChart (registered trademark) (ADInstruments, Inc.). For the evaluation, the value (AUC value, mmHg-s) of the area under the urethral pressure for one minute before and after administration of phenylephrine hydrochloride was determined to calculate the difference (ΔAUC value) between the AUC value before the administration of phenylephrine hydrochloride and the AUC value after the administration of phenylephrine hydrochloride. The ΔAUC value obtained before administering the test compound was regarded as being 100%, and based on this, the ratio (reaction rate) of the ΔAUC value of the test compound at each dose was calculated. The dose at which the obtained reaction rate became 60% (40% as an inhibition rate) was defined as ID40, and the ID40 values of the test compounds were calculated by non-linear regression.

The target of test [3] is T2, human MC4 receptor (Homo sapiens, UniProt P32245).
T2 construct: expressed in transfected cells; host or cells: FreeStyle 293-F cells (transient, electroporation)
T2 sequence (P32245 whole entry): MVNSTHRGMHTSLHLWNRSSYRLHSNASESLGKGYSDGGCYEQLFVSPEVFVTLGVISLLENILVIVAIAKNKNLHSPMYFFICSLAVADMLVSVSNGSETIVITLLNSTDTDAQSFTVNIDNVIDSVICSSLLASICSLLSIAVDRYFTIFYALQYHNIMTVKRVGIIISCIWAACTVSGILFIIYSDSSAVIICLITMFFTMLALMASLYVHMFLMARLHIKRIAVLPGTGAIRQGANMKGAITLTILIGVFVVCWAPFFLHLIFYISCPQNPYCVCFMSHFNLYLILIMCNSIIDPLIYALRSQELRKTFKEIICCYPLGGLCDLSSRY
Nature of the test: Human MC4 receptor activation, cAMP production in cells transiently expressing the receptor. In kind it is cell-based. The settings on record: FreeStyle 293-F cells expressing human MC4 receptor, α-MSH maximum = 100%.
Description: as §1, §2, §3, §4, §5, §6, §7

In test [4] the target is T3, human MC1 receptor (Homo sapiens, UniProt Q01726).
T3 construct: expressed in transfected cells; host or cells: FreeStyle 293-F cells (transient, electroporation)
T3 sequence (Q01726 whole entry): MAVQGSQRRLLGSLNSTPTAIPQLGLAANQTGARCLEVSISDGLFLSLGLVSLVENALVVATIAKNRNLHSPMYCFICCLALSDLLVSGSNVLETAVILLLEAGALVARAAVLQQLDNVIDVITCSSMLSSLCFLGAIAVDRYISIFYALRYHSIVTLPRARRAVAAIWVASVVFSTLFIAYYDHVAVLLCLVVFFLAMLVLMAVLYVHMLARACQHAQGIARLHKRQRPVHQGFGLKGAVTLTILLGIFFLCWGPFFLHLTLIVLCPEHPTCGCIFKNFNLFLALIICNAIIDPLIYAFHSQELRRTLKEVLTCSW
Kind of test: Human MC1 receptor activation, cAMP production in cells transiently expressing the receptor. The format is cell-based. The following applies: FreeStyle 293-F cells expressing human MC1 receptor, α-MSH maximum = 100%.
Description: as §1, §2, §3, §4, §5, §6, §7

Test [5] addresses T4, rat MC4 receptor (Rattus norvegicus, UniProt P70596).
T4 construct: expressed in transfected cells; host or cells: FreeStyle 293-F cells (transient, electroporation)
Nature of the test: Rat MC4 receptor activation, cAMP production in cells transiently expressing the receptor. In kind it is cell-based. The following applies: FreeStyle 293-F cells expressing rat MC4 receptor, α-MSH maximum = 100%.
Description: (1) Construction of Rat MC4 Receptor-Expressing Vector
A rat MC4 receptor gene (GenBank Accession No.: NM_013099.3) was introduced into an expression vector pcDNA™ 3.1N/V5-His TOPO (registered trademark) (Thermo Fisher Scientific Inc.).
(2) Construction of Cells Transiently Expressing Rat MC4 Receptor
as §4, with “rat MC4” for “human MC4, MC1, or MC3”, “Inc.).” for “Inc., product number: R790-07).”, “electroporation buffer” for “Electroporation Buffer”, “Inc.),” for “Inc., product number: B201-100),”, “Inc.),” for “Inc., product number: BLC-1),”
as §5
Measurement was carried out in accordance with the attached instructions, using a LANCE (registered trademark) Ultra cAMP Kit (PerkinElmer, Inc.). That is, after dissolution in DMSO, the test compound (a final concentration of 1 pM to 30 μM) diluted with an assay buffer (Hank's balanced salt solution, 5 mM HEPES, 0.5 mM IBMX, 0.1% bovine serum albumin, pH 7.4), or α-MSH (Bachem Inc., a final concentration of 1 pM to 30 μM) was added to OptiPlate-384 (PerkinElmer, Inc.). Furthermore, the suspension of the cells transiently expressing the rat MC receptor that was prepared using the assay buffer was added thereto at 1,000 cells/well, and then left to stand at room temperature for about 1 hour. Thereafter, an Eu-cAMP tracer solution and an ULight™-anti-cAMP solution were added thereto, and the resulting solution was left to stand at room temperature for about 1 hour. The amount of cAMP was calculated using EnVision (registered trademark) (PerkinElmer Inc).
For the agonistic activity, an efficacy (EC50 (μM)) was calculated by a non-linear regression method with a Sigmoid-Emax model, by defining the maximum reaction using α-MSH as 100% and the reaction using a vehicle alone as 0%, respectively.

The mark [6] stands for this setting: male Wistar rats, urethane anesthesia, intravenous, dose giving 40% inhibition of phenylephrine-induced urethral pressure ΔAUC.

By pEC50 is commonly meant −log10 of the EC50, conventionally taken in molar units.

T1 sequence (P41968 whole entry): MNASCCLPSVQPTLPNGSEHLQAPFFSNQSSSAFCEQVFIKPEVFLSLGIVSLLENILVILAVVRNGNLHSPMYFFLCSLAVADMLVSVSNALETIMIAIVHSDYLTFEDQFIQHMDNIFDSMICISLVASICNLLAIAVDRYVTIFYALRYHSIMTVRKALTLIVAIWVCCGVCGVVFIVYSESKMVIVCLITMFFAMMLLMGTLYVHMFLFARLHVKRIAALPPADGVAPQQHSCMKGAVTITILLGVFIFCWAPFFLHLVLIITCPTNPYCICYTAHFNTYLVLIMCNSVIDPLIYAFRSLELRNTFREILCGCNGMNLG
T4 sequence (P70596 whole entry): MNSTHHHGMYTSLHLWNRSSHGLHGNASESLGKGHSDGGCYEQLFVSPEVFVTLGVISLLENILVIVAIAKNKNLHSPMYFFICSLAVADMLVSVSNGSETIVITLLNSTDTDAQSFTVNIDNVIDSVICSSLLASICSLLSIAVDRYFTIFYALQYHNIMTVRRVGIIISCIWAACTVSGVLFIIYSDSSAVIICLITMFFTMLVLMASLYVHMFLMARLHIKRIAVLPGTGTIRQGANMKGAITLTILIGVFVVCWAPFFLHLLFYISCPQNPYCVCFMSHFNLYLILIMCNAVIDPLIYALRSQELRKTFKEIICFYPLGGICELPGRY

Turning to `CC(=O)N[C@@H](CC(C)(C)C)C(=O)N1C[C@H](C)N(C(=O)[C@@H]2CN(C3CCOCC3)C[C@H]2c2ccc(Cl)cc2F)C[C@H]1C` [Example 3], the pEC50 in test [1] was 6.51; in test [3], 8.10; in test [4], 5.24. For the same molecule, the ED40 in test [2] (iv) worked out at 8.9 mg/kg.

Regarding `CC(=O)N[C@@H](CC1CCCC1)C(=O)N1CCN(C(=O)[C@@H]2CN(C(C)(C)C)C[C@H]2c2ccc(F)cc2F)[C@@H](C)C1.Cl` [Example 16, N-((2S)-1-[(3S)-4-{[(3S,4R)-1-tert-butyl-4-(2,4-difluorophenyl)pyrrolidin-3-yl]carbonyl}-3-methylpiperazin-1-yl]-3-cyclopentyl-1-oxopropan-2-yl) acetamide monohydrochloride], the ED40 in test [2] (setting [6]) was found to be 11 mg/kg. The molecule further showed a pEC50 in test [3] of 7.85.

On to `CC(=O)N[C@@H](CC(C)(C)C)C(=O)N1CCN(C(=O)[C@@H]2CN(C3CCOCC3)C[C@H]2c2ccc(Cl)cc2F)[C@@H](C)C1.Cl` [Example 20, N-{(2S)-1-[(3S)-4-{[(3 S,4R)-4-(4-chloro-2-fluorophenyl)-1-(tetrahydro-2H-pyran-4-yl)pyrrolidin-3-yl]carbonyl}-3-methylpiperazin-1-yl]-4,4-dimethyl-1-oxopentan-2-yl}acetamide monohydrochloride], for which the pEC50 in test [5] is 8.12; in test [1] it was 5.92; in test [3], 7.64; in test [4], 5.10. For the same molecule, the ED40 in test [2] (setting [6]) was 40 mg/kg.
